Data published in PMC2862740, “Furin Targeted Drug Delivery for Treatment of Rhabdomyosarcoma in a Mouse Model” (PLoS ONE, 2010).
Positions of bridges follow the written chain, without caps; N, C: chain ends. No end group written: not given here. *: point of attachment. FITC = O=C1OC2(c3ccc(O)cc3Oc3cc(O)ccc32)c2ccc(NC(=S)*)cc21

How the values were obtained:
[1] = system: RD cells; experiment: competition of phage RMS-P3 binding by synthetic peptide; type: cell-based; conditions: for regression slope b of phage RMS-P3 binding versus peptide concentration: least-squares regression, N = 18, RMS-P3 r^2 = 0.889, p<0.0001, control r^2 = 0.0002, p = 0.959
Method: Figure 1 Validation of selected phages binding on RMS cells in vivo and in vitro. (A) Quantification of binding of single phage clones to different cell lines. Six phages selected from in vitro and in vivo screenings were validated individually in binding assays to three RMS cell lines (embryonal RMS: RD; alveolar RMS: Rh30 and Rh4) as well as to normal myoblasts (SkMC-c) and fibroblast cells (MRC-5). Phage clones are ordered according to the frequency of occurrence. Binding was calculated over non-recombinant T7, depicted are mean values ± SD of three independent experiments. (B) RMS-P3 and RMS-P6 phage distribution in RD mouse xenografts. Homing of phages to tumor was compared to control organs. Binding was normalized over phage T7 and tissue weight. Mean values ± SD of four independent experiments are shown. Numerical values for tumor to organ ratios are indicated above the bars. (C) Validation of RMS-P3 peptide sequence by competition of phage binding. 10^6 RD cells were incubated for 30 min with increasing concentrations of RMS-P3 peptide ([…]) or control peptide ([…]). Then, phages (10^9 pfu) were added for 1 h. Phage binding was normalized over non-recombinant T7. Data are presented as percentage of maximal phage binding obtained in the absence of synthetic peptide. Error bars indicate mean ± SD from three independent experiments. […] TEXT PRINTED IN THE PICTURE: (B) RMS-P6: tumor: 1; muscle: 1/6; kidney: 1/8; brain: 1/28; skin: 1/12 | (B) RMS-P3: tumor: 1; muscle: 1/24; kidney: 1/15; brain: 1/12; skin: 1/10 DOUBTS OF THE COPYIST ABOUT THIS PICTURE: Panel B: the picture prints no measure for the numbers over the bars. Each tissue name was assigned from the bar fill and the order of the printed key. / RMS-P6, brain: 1/28, the last digit may be 8 or 6 (small print)
(§1) 10^6 RD cells were detached (2.5 mM EDTA-PBS) and reconstituted (DMEM/1% BSA). Cells were preincubated with 100 µl of peptides (RMS-P3 or RMS-Pctrl) or general PC inhibitor decanoyl-Arg-Val-Lys-Arg-chloromethylketone (Dec-RVKR-cmk, Calbiochem, Switzerland) for 30 minutes. Phages (10^9 pfu) were added for 1 hour at RT under continuous rotation. Cells were washed four times with DMEM/1% BSA; titer of bound phage was determined by titration with BLT5403 and calculated over non-recombinant T7.

[2] = system: RD cells; experiment: competition of phage RMS-P3/RR binding by Dec-RVKR-cmk; type: cell-based
Method: (§2) Figure 4 RMS-P3/RR phage binding correlates with furin expression levels. (A) Binding of phage RMS-P3/RR to untransfected (MRC-5), furin-overexpressing (MRC-FUR) and empty vector transfected MRC-5 fibroblasts (MRC-EV) was tested in vitro. Phage binding was quantified over control T7. Results of three independent experiments ± SD are shown. Western blot of the same samples for furin expression and PCNA as loading control (A, lower panels) (B) Micrographs of MRC-5 fibroblasts (upper row) and MRC-5-FUR (lower row) cells incubated with 100 nM FITC-RMS-P3/RR (green) for 1h at RT, fixed and stained with the anti-furin-antibody Mon-152 (red). Nuclei are visualized by DAPI staining (blue). Yellow indicates overlap of the two stainings. Magnification: 40x; scale bars: 20 µm. (C) Inhibition of furin maturation in α1-PDX-transfected RD cells reduces phage binding. Phage RMS-P3/RR binding to untransfected RD, furin-inhibited RD-PDX and empty-vector transfected RD-EV cells was determined over non-recombinant T7 in three independent experiments (means ± SD). Expression of the inhibitor α1-PDX was confirmed by western blotting using 100 µg cell extract with antiserum against α1AT (C, lower panels). (D) Effect of the specific PC-inhibitor Dec-RVKR-cmk on phage RMS-P3/RR binding. Competition was performed with increasing concentrations of Dec-RVKR-cmk and constant amounts of phage (10^9 pfu). Phage binding was calculated over T7.
as §1

[3] = system: RD xenografts; experiment: targeted doxorubicin treatment of RD xenografts
Method: Five groups of 6 mice were treated when tumors reached 60 mm^3 in size. Treatment consisted of weekly tail vein injections for 30 days.
CD1-Nu/nu mice (4 to 6 weeks old, Charles River, Germany) were used for the in vivo screening, and 6 weeks old NOD/SCID IL2R γ-/- mice were used for all other studies. RMS cells (5×10^6 in 150 µl HBSS) were injected subcutaneously into the dorsolateral flank of the mice. Both diameters (d) of the spherical tumors were measured twice weekly and the volume was calculated with the general formula V = (4/3) πr^3, whereby r = (d1+d2)/4. Prior to the experiment, mice were anesthetized with 0.015 ml/g avertin by i.p. injection. 1 mg/ml of FITC-peptide in 250 µl PBS was injected by tail vein injection into mice bearing tumors 150 mm^3 in size. After 10 minutes circulation, mice were perfused, tumor and control organs were dissected and frozen in O.C.T. embedding medium (Leica Microsystems, Germany). 10 µm cryosections were washed with PBS, fixed for 15 minutes in ice-cold methanol and air-dried. Endothelial stainings were performed using rat monoclonal antibodies against mouse markers CD31 and MECA-32, both at the dilution of 1∶50 (BD biosciences, Switzerland). A rabbit polyclonal anti-furin-antibody (Abcam) was used at a dilution of 1∶1500. All corresponding secondary antibodies were AlexaFluor594-labeled IgGs (1∶300, Invitrogen).
Mice with size-matched tumors (∼60 mm^3) were randomized into five groups and injected once per week for 4 consecutive weeks. […] Control groups received either a mixture of 10 µg free doxorubicin and peptide RMS-P3/RR, an equimolar solution of peptide RMS-P-3/RR alone or PBS alone. Concentrations were confirmed by measuring the absorbance of conjugated doxorubicin at 490 nm. […] Mice were monitored for weight and tumor growth for 30 days.

[4] = system: RD xenograft tumors and control organs; experiment: FITC-peptide distribution in xenograft mice; type: in vivo, mouse; conditions: RD xenografts, i.v.
Method: Figure 2 FITC-labeled RMS-P3 binding in vitro and distribution in vivo. (A) Visualization of FITC-RMS-P3 peptide binding in normal and cancer cells in vitro. Cultured myoblasts (SkMC-c), fibroblasts (MRC-5), RMS cells (RD) and breast carcinoma cells (MDA-MB 231) were incubated with 100 nM FITC-RMS-P3 peptide for 1 h at 37°C. Fluorescence microscopy of fixed cells is shown. (B) Living RD cells were incubated with FITC-RMS-P3 peptide, subsequently fixed and stained with giantin (red). Colocalization is shown in the merged picture by yellow. Blue staining (DAPI) indicates the nuclei. Magnifications: 40x, scale bars: 20 µm. (C) Distribution of FITC-RMS-P3 and control peptide FITC-RMS-Pctrl in mice xenografts of RD cells. FITC-RMS-P3 or control FITC-RMS-Pctrl peptide were injected i.v. and after 10 minutes of circulation, mice were perfused and tumor and control organs were collected. Cryosections were double-labeled with mouse endothelial vessels markers CD31 and MECA-32 (red). Nuclear staining by DAPI is shown in blue. Magnifications: 40x, scale bars: 20 µm.
Figure 3 Identification of the receptor for RMS-P3. (A) Alanine-scan of the RMS-P3 sequence. RMS-P3 was mutated by replacing each amino acid residue with alanine (codon GCT). All phage mutants were tested individually for binding to RD cells in vitro. Mutated residues are indicated in bold. Phage binding was quantified over non-recombinant T7 and compared to the binding of wild type phage RMS-P3. Depicted are mean values ± SD of three independent experiments. […] (B) FITC-RMS-P3/RR and FITC-RMS-P3/AA distribution in RD xenograft mice. After tail vein injection of both FITC-RMS-P3/RR or control peptide RMS-P3/AA and circulation of 10 min, mice were perfused, tumors and control organs were dissected and FITC-peptide distribution (green) was evaluated in cryosections under fluorescence microscopy. Blood endothelial stainings (CD31 and MECA32) are shown in red, nuclear staining in blue (DAPI). Magnification: 20x, scale bar 50 µm. (C) Expression of proprotein convertases (PCs) measured by microarray profiling of 9 RMS cell lines and 30 RMS biopsy samples. Expression of PCs recognizing the cleavage site R(X)(R/K)(R/K) were considered. Each cell line or biopsy is represented by one data point. (D) Furin expression in different cell lines. Normal myoblasts (SkMC-c), fibroblasts (MRC-5), RMS cell lines (RD, Rh4, Rh30), furin-deficient colorectal carcinoma cells (LoVo) and furin-positive breast carcinoma cells (MBA-MB 231) were tested for furin expression by qRT-PCR (upper graph). […] Western blot (lower panels). Immature membrane-bound furin was detected at 103 kD, mature furin at 97 kD. PCNA was used as loading control.
Figure 6 FITC-RMS-P3/RR and FITC-RMS-P3/AA distribution in mice bearing RD xenografts. Peptides were injected i.v. and after circulation the mice were perfused, tumors and control organs were removed and peptide distribution was evaluated on cryosections by fluorescence microscopy. Depicted are overlay images (B, upper left panel) and single channel pictures. FITC-peptide stainings (green), either furin or endothelial stainings (CD31, MECA32) in red and cell nuclei in blue (DAPI) are shown. Magnification: 40x, scale bars 50 µm.
Supplementary file pone.0010445.s002.tif: Figure S2 Subcellular localization of FITC-RMS-P3 peptide. (A, B) FITC-RMS-P3/RR cell surface and intracellular localization. RD cells were incubated with 100 nM FITC-RMS-P3 peptide in vitro for 30 min at 4°C (A) or 37°C (B), respectively. Fixed cells were stained with undiluted 5.1H11 hybridoma supernatant against the human muscle-specific cell surface antigen N-CAM (red). A secondary rabbit anti-mouse Cy3 antibody (1∶300, Invitrogen) was used for detection. […] Cell nuclei were visualized with DAPI. Nuclei are indicated in grey. Magnification: 63x, scale bars: 20 µm. […]

[5] = system: MRC-5-FUR cells; experiment: FITC-RMS-P3/RR binding to furin-transfected fibroblasts; type: cell-based; conditions: 100 nM, 1h at RT
Method: as §2, with “RMS-P3/RR binding. […] Phage binding” for “RMS-P3/RR binding. Competition was performed with increasing concentrations of Dec-RVKR-cmk and constant amounts of phage (10^9 pfu). Phage binding”, “over T7. […]” for “over T7.”

## CMGTINTRTKKC (disulfide 1-12 (inferred)) [RMS-P3]
[1]; RD cells, 10^6, peptide preincubated 30 min, then phage 10^9 pfu 1 h at RT, three independent experiments, read-out: Half-maximal inhibition (IC50) of phage RMS-P3 binding
  IC50: ~100 nM
[1]
  regression slope b of phage RMS-P3 binding versus peptide concentration: −17.5
[1]; peptide at highest concentration tested (10 µM), percentage of maximal phage binding
  phage RMS-P3 binding remaining: 7.5%

## decanoyl-Arg-Val-Lys-Arg-chloromethylketone [Dec-RVKR-cmk]
[2]; 1 µM Dec-RVKR-cmk, RD cells, 30 min preincubation, phage 10^9 pfu 1 h
  phage RMS-P3/RR binding in presence of inhibitor: half-maximal
[2]; Dec-RVKR-cmk, RD cells
  effect on binding of control phage RMS-P3/AA: remained unaffected
[2]; least-squares regression, N = 18, r^2 = 0.883, p<0.0001
  regression slope b of phage RMS-P3/RR binding versus Dec-RVKR-cmk concentration: −17.9

## CSPNNTRRPNKC (disulfide 1-12 (inferred)) [RMS-Pctrl]
[1]; increasing peptide concentrations
  effect on phage RMS-P3 binding: no effect
[1]
  regression slope b of phage RMS-P3 binding versus peptide concentration: 0.055

## Doxorubicin-succinyl-GG-CMGTINTRTRRC (disulfide) [Dox-RMS-P3/RR]
[3]; 10 µg doxorubicin equivalent/week i.v., student's t-test, p<0.05
  tumor size compared to Dox alone, Dox and peptide, peptide alone or vehicle: significantly smaller
[3]; RMS in mice
  increase in therapeutic efficacy compared to doxorubicin treatment alone: two-fold
[3]; weekly tail vein injections, 30 days
  delay in tumor growth compared to untargeted drug delivery: significant delay in tumor growth

## FITC-RMS-P3/RR ({FITC}-GGCMGTINTRTRRC; also: cyclic peptide, ring type and places not given here)
[4]; 10 min circulation
  peptide distribution to muscle: not in control organs
  peptide uptake in kidney: not in control organs
[4]; 10 min circulation, cryosections
  peptide accumulation in tumor: Accumulation
[4]; 10 min circulation, cryosections, listed as FITC-labeled RMS-P3/RR
  peptide accumulation in tumor: strong peptide fluorescence
[4]; cryosections
  colocalization with furin around blood vessels in tumor: furin colocalized with peptide RMS-P3/RR fluorescence
[4]; around blood vessels, cryosections
  penetration into the tumor: about 30 µm
[5]; anti-furin-antibody Mon-152
  colocalization of furin and FITC-peptide: clear colocalization
[5]; in contrast to untransfected cells
  FITC-peptide binding to MRC-5-FUR cells: strong peptide binding
